ChEMBL document CHEMBL4811249, “Semisynthesis of Dolabellane Diterpenes: Oxygenated Analogues with Increased Activity against Zika and Chikungunya Viruses” (J Nat Prod, 2021)
pEC50: −log10 of the molar value. Calls of active or inactive are those of the source. No cut-off for these calls is given here.

Key:
[1] = system: Chikungunya virus; assay: Antiviral activity against CHIKV infected in African green monkey Vero cells assessed as inhibition of viral replication at 20 uM measured after 4 days relative to control; format: functional; conditions: 96 h, time 4 day; for inhibition at 20 µM: Chikungunya virus, Vero
[2] = system: Zika virus; assay: Antiviral activity against Zika virus infected in African green monkey Vero cells assessed as inhibition of viral replication at 20 uM measured after 4 days relative to control; format: functional; conditions: 96 h, time 4 day; for inhibition at 20 µM: Zika virus, Vero; for inhibition (INH): 20 µM
[3] = (§1) Cytotoxicity against African green monkey Vero cells by MTT assay; format: cell-based; conditions: chlorocebus sabaeus, Vero cells
[4] = system: Chikungunya virus; assay: Antiviral activity against CHIKV infected in African green monkey Vero cells assessed as reduction in viral replication by measuring viral titre after 72 hrs by plaque reduction assay; format: functional, organism-based
[5] = Selectivity index, ratio of CC50 for African green monkey Vero cells to EC50 for CHIKV; format: toxicity; conditions: read-out: Ratio CC50/EC50
[6] = system: Chikungunya virus; assay: Virucidal activity against CHIKV infected in African green monkey Vero cells at 5 to 20 uM measured after 4 hrs; format: functional, organism-based; conditions: dose 5-20 µM
[7] = system: Chikungunya virus; assay: Antiviral activity against CHIKV infected in African green monkey Vero cells assessed as inhibition of viral adsorption at 20 uM measured after 4 days by crystal violet staining based assay relative to control; format: functional; conditions: 96 h, time 4 day
[8] = system: Zika virus; assay: Antiviral activity against Zika virus infected in African green monkey Vero cells assessed as reduction in viral replication by measuring viral titre after 72 hrs by plaque reduction assay; format: functional, organism-based
[9] = Selectivity index, ratio of CC50 for African green monkey Vero cells to EC50 for Zika virus; format: toxicity; conditions: read-out: Ratio CC50/EC50
[10] = system: Zika virus; assay: Virucidal activity against Zika virus infected in African green monkey Vero cells at 20 uM measured after 4 hrs relative to control; format: functional
[11] = system: Vero; assay: as §1; format: cell-based; conditions: chlorocebus sabaeus, vero
[12] = system: Zika virus; assay: Antiviral activity against Zika virus infected in African green monkey Vero cells assessed as inhibition of viral adsorption at 20 uM measured after 4 days by crystal violet staining based assay relative to control; format: functional; conditions: 96 h, time 4 day

Row | SMILES | inhibition at 20 µM [1] [%] | inhibition at 20 µM [2] [%] | CC50 [3] [µM] | also measured
1 | CC(C)=C1C(=O)C[C@@]2(C)C[C@H]3O[C@]3(C)CC[C@H]3O[C@]3(C)CC[C@H]12 | 0 | 56 | 960 | 
2 | CC(C)=C1C(=O)C[C@@]2(C)C/C=C(\C)CC[C@H]3O[C@]3(C)CC[C@H]12 | 99 | 38 | 530 | pEC50 [4]: 5.92; selectivity ratio [5]: 440; Activity [6]: Active; inhibition at 20 µM [7]: > 90%
3 | CC(C)=C1C(=O)C[C@@]2(C)C/C=C(\CO)CC[C@H]3O[C@]3(C)CC[C@H]12 | 71 | 60 | 800 | pEC50 [4]: 4.89; selectivity ratio [5]: 61
4 | CC(C)=C1C(=O)C[C@@]2(C)C/C=C(\C=O)CC[C@H]3O[C@]3(C)CC[C@H]12 | 39 | 99 | 750 | pEC50 [8]: 6.05; selectivity ratio [9]: 830; Activity [10]: 90%
5 | C=C(C)C1=CC[C@@]2(C)C[C@H]3O[C@]3(C)CC[C@H]3O[C@]3(C)CC[C@H]12 | 0 | 60 | 480 | 
6 | COC1(C)CC[C@@H](O)[C@]2(C)CC[C@@H]3C(=C(C)C)C(=O)C[C@@]3(C)C[C@@H]12 (relative stereo; 19) |  |  |  | inhibition (INH) ([1]; 20 µM): 40%; inhibition (INH) [2]: 59%; CC50 [11]: 650 µM
7 | NC(=O)c1ncn([C@@H]2O[C@H](CO)[C@@H](O)[C@H]2O)n1 [RIBAVIRIN] | 97 | 93 |  | 
8 | CC(C)=C1[C@H]2CC[C@@]3(C)O[C@@H]3CC/C(C)=C/C[C@]2(C)C[C@@H]1O | 45 | 99 | 580 | pEC50 [8]: 5.92; selectivity ratio [9]: 480; Activity [10]: 80%
9 | CC(=O)O[C@@H]1C[C@@]2(C)C/C=C(\C)CC/C=C(\C)CC[C@@H]2C1=C(C)C | 99 | 62 | 100 | pEC50 [4]: 5.92; selectivity ratio [5]: 83; Activity [6]: Active; inhibition at 20 µM [7]: > 90%
10 | CC(=O)OC/C1=C\CC/C(C)=C/C[C@]2(C)CC(=O)C(=C(C)C)[C@H]2CC1 | 0 | 30 | 250 | 
11 | COC1(C)CC[C@@H](O)[C@]2(C)CC[C@@H]3C(=C(C)C)C(=O)C[C@@]3(C)C[C@@H]12 (relative stereo; 18) | 25 |  | 730 | inhibition (INH) [2]: 100%; pEC50 [8]: 5.74; selectivity ratio [9]: 410; inhibition at 20 µM [12]: > 90%
12 | CC1=CC[C@@H](O)[C@]2(C)CC[C@@H]3C(=C(C)C)C(=O)C[C@@]3(C)C[C@@H]12 | 65 | 99 | 580 | pEC50 [8]: 5.68; selectivity ratio [9]: 280
13 | CC(C)=C1[C@H](O)C[C@@]2(C)C/C=C(\C)CC[C@H]3O[C@]3(C)CC[C@H]12 | 33 | 30 | 430 | 
14 | CC(C)=C1C(=O)C[C@@]2(C)C[C@H]3O[C@]3(C)CC/C=C(\C)CC[C@H]12 | 82 | 65 | 470 | pEC50 [4]: 5.02; selectivity ratio [5]: 50
15 | CC(C)=C1[C@H](O)C[C@@]2(C)C[C@H]3O[C@]3(C)CC[C@H]3O[C@]3(C)CC[C@H]12 | 44 | 49 | 960 | 
16 | CC(C)=C1C(=O)C[C@@]2(C)C/C=C(\C)CC/C=C(\C=O)CC[C@H]12 | 29 | 0 | 100 | 
17 | C[C@H]1/C=C/[C@@]2(C)CC[C@@H](C(C)(C)O)[C@@H]2[C@@H](O)C[C@](C)(O)/C=C/C1 | 35 | 50 | 400 | 
18 | CC(C)=C1C(=O)C[C@@]2(C)C/C=C(\C)CC/C=C(\C)CC[C@H]12 [DOLABELLANE] | 0 | 0 | 150 | 
19 | CC(C)=C1[C@H]2CC/C(C)=C/CC/C(C)=C/C[C@]2(C)C[C@@H]1O | 0 | 51 | 190 | 
20 | C=C(C)C1=CC[C@@]2(C)C/C=C(\C)CC/C=C(\CO)CC[C@H]12 | 0 | 61 | 600 | 
21 | CC(C)=C1[C@H]2CC[C@@]3(C)O[C@@H]3CC[C@@]3(C)O[C@@H]3C[C@]2(C)C[C@@H]1O | 98 | 81 | 1000 | pEC50 [8]: 5.05; pEC50 [4]: 6.15; selectivity ratio [9]: 110; selectivity ratio [5]: 1400
